Measured values published in patent US10206905B2, “Use of composition for preparing a medicament for treatment of amyotrophic lateral sclerosis” (priority 2015, dated 2019).
Marks after values point to notes of the source that are not given here.

How the values were obtained:
SOD1-G93A mice [1] = experiment: Motor function scores of SOD1-G93A mice (Example 3); format: in vivo; settings: p<0.05, FIG. 5
SOD1-G93A mice [2] = experiment: Passive avoidance test of learning and memory in SOD1-G93A mice (Example 2); format: in vivo; settings: memory experiment; for Latency period after entering the dark room versus model group: age about 90 d, FIG. 2; for Number of step-through errors versus model group: FIG. 3
Text: (§1) The transgenic mice (B6SJL-TgN[SOD1-G93A] 1Gur) carrying humanized copper/zinc superoxide dismutase (SOD1) (G93A mutants)and wild-type B6SJL F1 mice are purchased from Nanjing University. The breed conversation and propagation methods of the mice: one wild-type female mouse and one transgenic male mouse were allowed to mate with each other, with their progeny identified through polymerase chain reaction (PCR) with DNA extracted from the tail of young mice.
(§2) Calculated based on the effective doses of edaravone (SOD1-G93Amouse 15 mg/kg, SOD1-H46R rat 3-6 mg/kg) and those on cerebral ischemic animal models (SD rat 6 mg/kg) according to the literature, the dosage of edaravone was set at 12 mg/kg, then the dosage of the composition of edaravone and borneol was set at 15 mg/kg (the dosage of edaravone was set at 12 mg/kg, borneol was 3 mg/kg), and borneol was set at 3 mg/kg.
(§3) SOD1 genetic mutant mice at the age of 70 d were divided randomly into 4 groups according to their motor functions. Respectively: the SOD1 genetic mutation control group; the treating group of the composition of edaravone and borneol at 15 mg/kg; the treating group of edaravone at 12 mg/kg; the treating group of borneol at 3 mg/kg; another B6SJL healthy mice control group without SOD1 genetic mutation was additionally set. There was 14 mice each group, half of males and half of females.
From the day of grouping, animals in each group were dosed by intraperitoneal injection once a day, until the behavior test has been completed. Animals in the healthy control group and the SOD1 genetic mutation control group were given saline of equal volumes.
The passive avoidance test was performed when the animals were at the age of about 90 d to determine their abilities of learning and memory. The experimental device was divided into two rooms, bright and dark. […] The mice were placed into the bright room with face back to the hole in the test, the timer was initiated at the same time, and the animals entered the dark room through passing the hole, subjecting to the electric shock (0.19 mA), the recorded time was the latency period, meanwhile recording the number of step-through errors in 5 min after the mice got into the dark room. The memory experiment was carried out on the third day, the time from placing each mouse into the bright room to entering the dark room was recorded, if the mouse didn't enter the dark room in 5 min, then the latency period was recorded as 300s, meanwhile recording the number of step-through errors in 5 min after the mice got into the dark room.
It was assessed whether there was a synergistic effect between edaravone and borneol in the composition according to the Jong-eun's formula, q=E(a+b)/(Ea+Eb−Ea×Eb). […]

SOD1-G93A mice [3] = experiment: Rota-rod motor function of SOD1-G93A mice (Example 1); format: in vivo; settings: p<0.05, FIG. 1
Method: According to the methods reported in literatures, mice were placed on the Rota-rod (60 Hz/min, Φ190 mm), and the time from being placed on the Rota-rod to dropping was recorded. Each mouse was determined for 3 times at each time point, with the longest time of mouse keeping on the rotating rod reflecting the motor function of the mouse, the determination was stopped if the time was over 180s, calculated as 180s. The motor functions of the mice with SOD1 mutant gene were determined beginning at the age of 60 d. Thereafter, they were observed and determined every 10 days, until death.
as §2, with “(SOD1-G93Amousel5” for “(SOD1-G93Amouse 15”, “3-6mg/kg)” for “3-6 mg/kg)”
SOD1 genetic mutant mice at the age of 70 d were divided randomly into 4 groups according to their motor functions. […]

SOD1-H46R rat = settings: according to the literature; cited from earlier work
SOD1-G93A mice [4] = experiment: Rotarod test drop time of SOD1-G93A mice (Example 3); format: in vivo; settings: p<0.05, FIG. 6
[5] = tested on: cerebral ischemic animal models; settings: SD rat, according to the literature; cited from earlier work
[6] = tested on: amyotrophic lateral sclerosis; settings: clinical phase-III study NCT00330681; primary endpoint not reached; cited from earlier work
SOD1-G93A mice [7] = experiment: Onset time and survival time of SOD1-G93A mice (Example 1); format: in vivo; settings: for Survival Time Extension: i.p. once a day from age 70 d, versus SOD1-G93A control; for Onset Time / Survival Time: i.p. once a day from age 70 d until death
Text: as §1, with “mutants) and” for “mutants)and”, “are” for “were”
5 B6SJL-TgN(SOD1-G93A)1Gur male mice were allowed to mate with B6SJLF1 female healthy mice in a ratio of 1 male to 3 females beginning at the age of 60 d. DNA was extracted from the progeny mice tail-cutting (as required in the kits), plus SOD1 primers 5′ -[…]-3 ′ and 5 ′ -[…] AAGTGA-3 ′ were amplified through 30 PCR cycles, confirming SOD1 gene strips between 200˜300bp. Mice without SOD1 mutant gene were eliminated.
as §2, with “(SOD1-G93Amousel5” for “(SOD1-G93Amouse 15”, “3-6mg/kg)” for “3-6 mg/kg)”
as §3, with “without SOD lgenetic” for “without SOD1 genetic”
From the day of grouping, animals in each group were dosed by intraperitoneal injection once a day, until death. Animals in the healthy control group and the SOD1 genetic mutation control group were given saline of equal volumes.
It was determined as muscle strength decline when the time of the mice keeping on the rotarod decreased by over 30% compared with the former time determined. The onset time of the mice was determined according to the variation of this motor function and the observation of the anterior limbs of the mice with or without tremor. When the mice have lain on their backs on smooth planes for 30 s and cannot righting reflex, or there was serious infection in one or both eyes, then the mice may be judged as death and sacrificed. The time from birth to death of a mouse was the survival time of the mouse.
It was assessed whether there was a synergistic effect between edaravone and borneol in the composition according to the Jong-eun's formula, q=E(a+b)/(Ea+Eb−Ea×Eb). In the formula, E(a+b) is the effective rate of the combined drugs, Ea, Eb is the effective rate of A drug, B drug used alone, respectively. If q value was in the range of 0.85˜1.15, indicating the sum of the combined two drugs; q value >1.15 indicating enhancement, and q value <0.85 indicating there was an antagonistic effect when two drugs were used together.

mutant SOD1 G93A mice = settings: cited from earlier work
SOD1-G93A mice [8] = experiment: Onset time and survival time of SOD1-G93A mice (Example 3); format: in vivo
Method: The transgenic mice with amyotrophic lateral sclerosis (B 6 SJL-Tg(SOD1*G93A)1Gur/JNj u, hereinafter referred to as SOD1-G93 A mice) and the wild-type control mice were purchased from Nanjing Biomedical Research Institute of Nanjing University.
Dosing to animals was initiated from the age of 10 weeks, keeping on the whole survival period. Each dosage of the composition and the positive drug edaravone group was dosed by intraperitoneal injection once a day. […] Animals in the wild control group and the model group were given the corresponding volumes of solvents by intraperitoneal injection.
From the age of 10 weeks, the body weight, the motor function (motor ability score, rotarod test) of animals had been monitored once a week. Two consecutive rod droppings in the animal rotarod test had been considered as the sign of the onset of animal diseases. It was defined as the end of a disease to euthanasia when the animal cannot get righting in 30 seconds after being laid on one side.
The body weight, the motor ability score, the variation of the rod drop latency period with the time in the rotarod test, the onset time, and the survival time were considered as the indexes of observing the disease progress.

SOD1-G93A mice [9] = experiment: Body weight of SOD1-G93A mice (Example 3); format: in vivo; settings: 100 μg/ml in drinking water; age 21 weeks; p<0.05; FIG. 4
[10] = 15 mg/kg/d i.p. once a day from age 10 weeks, mean ± standard error
[11] = 100 μg/ml in drinking water, age 16-21 weeks

## CC1=NN(c2ccccc2)C(=O)C1 [Edaravone, 3-methyl-1-phenyl-2-pyrazolin-5-one]
SOD1-G93A mice [1]; 15 mg/kg/d i.p., age 17, 20, 21 weeks
  Motor function scores versus model group: significantly higher than in the model group
SOD1-G93A mice [2]; 12 mg/kg/d i.p. from 70 d, p<0.05
  Latency period after entering the dark room versus model group: extended significantly
SOD1-G93A mice [2]; 12 mg/kg/d i.p., p<0.05
  Number of step-through errors versus model group: decreased significantly
SOD1-G93A mice [3]; 12 mg/kg/d i.p., age 110, 120, 130 d
  Rotarod time (muscle strength, motor function) versus model control group: significantly slow the decline of the muscle strength
SOD1-H46R rat
  Effective dose: 3 to 6 mg/kg
SOD1-G93A mice [4]; 15 mg/kg/d i.p., age 16, 19, 20, 21 weeks
  Drop time in the rotarod test versus model group: markedly longer than in the model group
[5]
  Effective dose: 6 mg/kg
[6]
  ALSFRS-R score versus placebo group: decreased less than the placebo group, there was no significant difference
SOD1-G93A mice [7]; 12 mg/kg/d i.p. from age 70 d
  Effect on the survival time versus model group: extending the survival time of the mice significantly
  Influence on the onset time of the mice: no influence on the onset time
SOD1-G93A mice [7]; 12 mg/kg/d
  Survival Time Extension: 6.2 days
  Onset Time: 113.7 ± 2.6 days
  Survival Time: 144.6 ± 3.7 days
SOD1-G93A mice [7]; 12 mg/kg/d, listed as edaravone
  Survival Time: 144.6 ± 3.7 days
Mutant SOD1 G93A mice; Exp Neurol. 2008, 213(2):448-55
  Progression of the symptoms and degeneration of neuron: capable of slowing the progression of the symptoms
Mutant SOD1 G93A mice; SOD1-G93A mouse, according to the literature
  Effective dose: 15 mg/kg
SOD1-G93A mice [8]; [10]
  Onset Time: 111.3 ± 10.0 days
  Survival Time: 151.7 ± 9.7* d
SOD1-G93A mice [8]; 15 mg/kg/d i.p., versus SOD1-G93A control
  Survival Time Extension: 9.4 days

## Nc1nc2ccc(OC(F)(F)F)cc2s1 [Riluzole]
SOD1-G93A mice [9]
  Weight of animals versus model control group: significantly higher than in the model control group
SOD1-G93A mice [1]; [11]
  Motor function scores versus model group: significantly higher than in the model group
SOD1-G93A mice [4]; [11]
  Drop time in the rotarod test versus model group: longer than in the model group markedly
SOD1-G93A mice [8]; 100 μg/ml in drinking water from age 10 weeks, mean ± standard error
  Onset Time: 109.2 ± 9.4 days

## CC1(C)C2CCC1(C)C(O)C2 (stereo not shown) [Borneol, 2-camphol]
SOD1-G93A mice [2]; 3 mg/kg/d i.p. from 70 d
  Latency period after entering the dark room versus model group: not obvious
SOD1-G93A mice [2]; 3 mg/kg/d i.p.
  Number of step-through errors versus model group: not obvious
SOD1-G93A mice [3]; 3 mg/kg/d i.p., only at age 130 d
  Rotarod time versus model group: different significantly from the model group
SOD1-G93A mice [7]; 3 mg/kg/d i.p. from age 70 d
  Effect on the survival time versus model group: no statistical difference compared with the model group
SOD1-G93A mice [7]; 3 mg/kg/d
  Survival Time Extension: 2.9 days
  Onset Time: 113.1 ± 2.5 days
  Survival Time: 141.3 ± 3.6 days
SOD1-G93A mice [7]; 3 mg/kg/d, listed as borneol
  Survival Time: 141.3 ± 3.6 days
